Source: patent US20250228865A1, “COMPOUNDS FOR ENHANCING READ THROUGH OF GENES CONTAINING PREMATURE TERMINATION CODONS AND METHODS FOR MAKING AND USING THE SAME” (Sanofi US Services Inc., priority 2022, published 2025)

Key:
[1] = test system: recombinant human CFTR carrying the premature stop codon (PTC) mutation G542X; experiment: CFTR-PTC mutant translation readthrough, Nanoluc tagged CFTR luminescence (G542X cell line); format: cell-based; details: in combination with G418, G542X cell line; for CFTR G542X ACTIVITY Fold 10 μM G-418: fold over 10 μM G-418; for EC50: 16HBE cells
Procedure, shortened: (§1)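 16HBE cells stably expressing Nanoluc-tagged human CFTR with G542X or R1162X, in medium with 3 μM VX-809, treated 48 h at 37 °C with compound (10-point, 2-fold, top 50 μM final) alone or with 10 μM G418. Live-cell Nanoluc luminescence normalised to a maximally effective G418 (125-250 μM).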

[2] = test system: recombinant human CFTR carrying the premature stop codon (PTC) mutation R1162X; experiment: CFTR-PTC mutant translation readthrough, Nanoluc tagged CFTR luminescence (R1162X cell line); format: cell-based; details: for CFTR R1162X ACTIVITY Fold 10 μM G-418: fold over 10 μM G-418, in combination with G418; for EC50: in combination with G418, 16HBE cells, read-out: CFTR R1162X ACTIVITY EC50
Procedure, shortened: as §1

| Compound | EC50 [1] [nM] | EC50 [2] [nM] | CFTR G542X ACTIVITY Fold 10 μM G-418 [1] | CFTR R1162X ACTIVITY Fold 10 μM G-418 [2] |
| --- | --- | --- | --- | --- |
| OCc1cn(-c2ncc(OCc3c(Cl)cccc3Cl)cn2)cn1 [[1-[5-[(2,6-dichlorophenyl)methoxy]pyrimidin-2-yl]imidazol-4-yl]methanol] | < 1000 | 1000 to 10000 | A′ (A′ = ≥10X) | A′ (A′ = ≥10X) |
| Cc1cccc(C(F)(F)F)c1COc1cnc(-n2cnc(CO)c2)nc1 | < 1000 | < 1000 | A′ (A′ = ≥10X) | A′ (A′ = ≥10X) |
| Cc1cccc(C(F)(F)F)c1COc1cnc(N2CCC(O)CC2)nc1 [1-[5-[[2-methyl-6-(trifluoromethyl)phenyl]methoxy]pyrimidin-2-yl]piperidin-4-ol] | < 1000 | < 1000 | A′ (A′ = ≥10X) | A′ (A′ = ≥10X) |
| NC(=O)c1ccn(-c2ncc(OCc3c(Cl)cccc3Cl)cn2)n1 [1-[5-[(2,6-dichlorophenyl)methoxy]pyrimidin-2-yl]pyrazole-3-carboxamide] | < 1000 | < 1000 | A′ (A′ = ≥10X) | B′ (B′ = ≥5X to <10X) |
| O=C1OCC(CO)=C1c1ccc(OCc2c(Cl)cccc2Cl)cc1 [4-[4-[(2,6-dichlorophenyl)methoxy]phenyl]-3-(hydroxymethyl)-2H-furan-5-one] | 1000 to 10000 | 1000 to 10000 | B′ (B′ = ≥5X to <10X) | B′ (B′ = ≥5X to <10X) |
| OCCOCCN1CCN(c2ncc(OCc3c(Cl)cccc3Cl)cn2)CC1 | < 1000 | < 1000 | A′ (A′ = ≥10X) | A′ (A′ = ≥10X) |
| CC(=O)N1CCN(c2ncc(OCc3c(Cl)cccc3Cl)cn2)CC1 [1-[4-[5-[(2,6-dichlorophenyl)methoxy]pyrimidin-2-yl]piperazin-1-yl]ethanone] | 1000 to 10000 | 1000 to 10000 | A′ (A′ = ≥10X) | A′ (A′ = ≥10X) |
| O=C1CN(c2ncc(OCc3c(Cl)cccc3Cl)cn2)C(=O)N1 [Example 323, 1-{5-[(2,6-dichlorophenyl)methoxy]pyrimidin-2-yl}imidazolidine-2,4-dione] | 1000 to 10000 | 1000 to 10000 | C′ (C′ = <5X) | C′ (C′ = <5X) |

More lines, main results first:

| EC50 [1] [nM] | EC50 [2] [nM] | Compound | CFTR G542X ACTIVITY Fold 10 μM G-418 [1] | CFTR R1162X ACTIVITY Fold 10 μM G-418 [2] |
| --- | --- | --- | --- | --- |
| 1000 to 10000 | 1000 to 10000 | O=C1N[C@@H](CO)CN1c1ncc(OCc2c(Cl)cccc2C(F)(F)F)cn1 [(4R)-1-(5-{[2-chloro-6-(trifluoromethyl)phenyl]methoxy}pyrimidin-2-yl)-4-(hydroxymethyl)imidazolidin-2-one] | C′ (C′ = <5X) | C′ (C′ = <5X) |
| 1000 to 10000 | 1000 to 10000 | OCC1CN(c2ncc(OCc3c(F)cccc3C(F)(F)F)cn2)CCO1 (stereo not shown) | A′ (A′ = ≥10X) | A′ (A′ = ≥10X) |
| < 1000 | 1000 to 10000 | Cc1cccc(C(F)(F)F)c1COc1cnc(N2CCC(O)(c3ccccn3)CC2)nc1 | A′ (A′ = ≥10X) | A′ (A′ = ≥10X) |
| 1000 to 10000 | > 10000 | O=C1CNC(=O)N1c1ccc(OCc2c(Cl)cccc2C(F)(F)F)cn1 | B′ (B′ = ≥5X to <10X) |  |
| 1000 to 10000 | 1000 to 10000 | OCCn1cc(-c2ccc(OCc3c(Cl)cccc3Cl)cc2)nn1 [2-[4-[4-[(2,6-dichlorophenyl)methoxy]phenyl]triazol-1-yl]ethanol] | B′ (B′ = ≥5X to <10X) | A′ (A′ = ≥10X) |
| 1000 to 10000 | 1000 to 10000 | OC[C@H]1CN(c2ncc(OCc3c(Cl)cccc3Cl)cn2)C[C@@H](C(F)(F)F)O1 (racemic) | A′ (A′ = ≥10X) | A′ (A′ = ≥10X) |
